Source: US11352350B2, “IRAK degraders and uses thereof” (Kymera Therapeutics, Inc., priority 2018, dated 2022)
Where two headings read alike, the source gives them in different places.

How the values were obtained:
[1] = test system: OCI-LY10; experiment: CTG Cell Viability Assay - OCI-LY10; type: cell-based, human; details: OCI-LY10, 4 days, read-out: CTG Cell Viability Assay - OCI-LY10: Average external-IC50
Method in brief: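 OCI-LY10 cells exposed to 9-dose, 1:3 dilutions from 10 μM top (0.2% DMSO) for 4 days at 37° C, 5% CO2. Viability by CellTiter-Glo luminescence; IC50 from three-parameter logistic fit.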

[2] = biological target: IRAK4 (Homo sapiens (Human), UniProt Q9NWZ3); experiment: IRAK4 MSD degradation in OCI-LY10; type: cell-based; details: MSD
IRAK4, sequence (Q9NWZ3 whole entry): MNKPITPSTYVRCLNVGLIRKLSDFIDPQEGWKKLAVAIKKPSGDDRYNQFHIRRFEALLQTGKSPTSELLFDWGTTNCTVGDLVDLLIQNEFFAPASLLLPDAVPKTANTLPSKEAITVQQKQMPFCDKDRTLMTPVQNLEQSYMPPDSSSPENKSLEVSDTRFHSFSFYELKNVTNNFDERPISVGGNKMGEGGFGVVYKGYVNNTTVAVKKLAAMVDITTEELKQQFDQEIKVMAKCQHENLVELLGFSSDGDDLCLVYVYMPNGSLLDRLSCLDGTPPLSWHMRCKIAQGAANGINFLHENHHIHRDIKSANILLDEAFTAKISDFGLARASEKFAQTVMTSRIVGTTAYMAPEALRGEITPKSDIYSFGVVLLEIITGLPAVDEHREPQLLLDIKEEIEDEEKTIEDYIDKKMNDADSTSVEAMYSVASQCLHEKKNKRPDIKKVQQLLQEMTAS
Method in brief: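 OCI-LY10 cells treated with 8-point 1:3 dilutions (top 1 to 10 μM final) for 4 to 24 h at 37° C. Lysate IRAK4 measured by MSD sandwich immunoassay (2H9 capture, Y279 detection, SULFO-TAG anti-rabbit). DC50 from three-parameter logistic fit.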

[3] = OCI-LY10, 4 hrs, read-out: IRAK4 MSD degradation in OCI-LY10 at 4 hrs: Average external-Abs DC50
[4] = OCI-LY10, 24 hrs, read-out: IRAK4 MSD degradation in OCI-LY10 at 24 hrs: Average external-Abs DC50

Structure (SMILES)	IC50 ([1]; Homo sapiens, OCI-Ly10, 96 h) [nM]	DC50 [2, 3] [nM]	IC50 [1] [nM]	DC50 [2, 4] [nM]	IC50 ([1]; Homo sapiens, 96 h) [nM]
CN(CCCOCCCc1cccc2c1n(C)c(=O)n2[C@H]1CCC(=O)NC1=O)C[C@H]1CC[C@H](n2cc(NC(=O)c3coc(-c4ccnc(NCC5CC5)c4)n3)c(C(F)F)n2)CC1 (single isomer, unassigned) [I-306]	> 1000	< 10			
COc1cc(C(=O)NCCCCCCN(C)C(=O)[C@H]2CC[C@H](n3cc(NC(=O)c4coc(-c5ccnc(NCC6CC6)c5)n4)c(C(F)F)n3)CC2)ccc1NC(=O)[C@@H]1N[C@@H](CC(C)(C)C)[C@](C#N)(c2ccc(Cl)cc2F)[C@H]1c1cccc(Cl)c1F [I-143]		> 1000	> 1000	> 1000	
O=C1CCC(N2Cc3c(OC4CC5(CCN(C[C@H]6CC[C@H](n7cc(NC(=O)c8cnn9ccc(N%10C[C@H]%11C[C@@H]%10CO%11)nc89)c(C(F)F)n7)CC6)CC5)C4)cccc3C2=O)C(=O)N1 (stereo partly shown) [I-328]	< 50	10 to 100		< 10	
CN1C(=O)CCC(n2c(=O)n(C)c3c(CCCOC4CCN(C[C@H]5CC[C@H](n6cc(NC(=O)c7cnn8ccc(N9CCOCC9)nc78)c(C(F)F)n6)CC5)CC4)cccc32)C1=O (stereo partly shown) [I-195]	> 1000	100 to 1000			
CN(CCCOCCCN)C[C@H]1CC[C@H](n2cc(NC(=O)c3cnn4ccc(N5CCOCC5)nc34)c(C(F)F)n2)CC1 [I-315, N-[1-[4-[[3-(3-aminopropoxy)propyl-methyl-amino]methyl]cyclohexyl]-3-(difluoromethyl)pyrazol-4-yl]-5-morpholino-pyrazolo[1,5-a] pyrimidine-3-carboxamide]	> 1000	> 1000		> 1000	
CN1C(=O)CCC(N2Cc3c(OCc4ccc(CN5CCN(C[C@H]6CC[C@H](n7cc(NC(=O)c8cnn9ccc(N%10CCOCC%10)nc89)c(C(F)F)n7)CC6)CC5)cc4)cccc3C2=O)C1=O (stereo partly shown) [I-322]	> 1000	100 to 1000		> 1000	
O=C1CCC(N2C(=O)c3cccc(N4CCC(CCCN5CCC(n6cc(NC(=O)c7cnn8ccc(N[C@@H]9CCCC[C@@H]9O)nc78)c(C(F)F)n6)CC5)CC4)c3C2=O)C(=O)N1 (stereo partly shown) [I-298]	100 to 500	100 to 1000			
O=C1CCC(N2C(=O)c3cccc(NCCCOC[C@@H]4CN(Cc5ccc(-n6cc(NC(=O)c7coc(-c8ccnc(NCC9CC9)c8)n7)c(C(F)F)n6)cc5)CCO4)c3C2=O)C(=O)N1 (stereo partly shown) [I-393]	50 to 100	100 to 1000		10 to 100	
Cn1c(=O)n(C2CCC(=O)NC2=O)c2cccc(CN3CC4(CCN(C[C@H]5CC[C@H](n6cc(NC(=O)c7cnn8ccc(N9CCOCC9)nc78)c(C(F)F)n6)CC5)CC4)C3)c21 (stereo partly shown) [I-233]	100 to 500	< 10			
CN(CCCOCCCNC(=O)c1ccc(CNCc2ccc(-c3ccc4c(cnn4CC4CC4)c3)cc2)cc1)C[C@H]1CC[C@H](n2cc(NC(=O)c3coc(-c4ccnc(NCC5CC5)c4)n3)c(C(F)F)n2)CC1 [I-131]	> 1000	> 1000		> 1000	
O=C1CCC(N2C(=O)c3cccc(NC4CCN(C5CCN(C[C@H]6CC[C@H](n7cc(NC(=O)c8cnn9ccc(N%10CCOCC%10)nc89)c(C(F)F)n7)CC6)CC5)CC4)c3C2=O)C(=O)N1 (stereo partly shown) [I-232]	< 50	< 10			
CC[C@H]1C(COc2ncc(C#C[C@H]3CC[C@H](CN(C)CCN4CCO[C@H](CCNc5cccc6c5C(=O)N(C5CCC(=O)NC5=O)C6=O)C4)CC3)c3cc(C(N)=O)c(OC)cc23)NC(=O)[C@H]1F (stereo partly shown) [I-334]	100 to 500	100 to 1000			
Cn1c(=O)n(C2CCC(=O)NC2=O)c2ccc(CCCCOCCCCNCC(=O)N3CCN([C@H]4CC[C@H](Nc5ncnc6[nH]cc(C7CCOCC7)c56)CC4)CC3)cc21 (stereo partly shown) [I-23]	50 to 100	10 to 100		< 10	
O=C1CCC(N2C(=O)c3cccc(NC4CC5(CCN(C[C@H]6CC[C@H](n7cc(NC(=O)c8cnn9ccc(N%10C[C@H]%11C[C@@H]%10CO%11)nc89)c(C(F)F)n7)CC6)CC5)C4)c3C2=O)C(=O)N1 (stereo partly shown) [I-381]	50 to 100	10 to 100		< 10	
CN(CC1CCN(c2ccc3c(c2)n(C)c(=O)n3C2CCC(=O)NC2=O)CC1)C[C@H]1CC[C@H](n2cc(NC(=O)c3coc(-c4ccnc(NCC5CC5)c4)n3)c(C(F)F)n2)CC1 (stereo partly shown) [I-236]	> 1000	< 10			
Cc1nc2cccc(OCCCOC3CCN(C[C@H]4CC[C@H](n5cc(NC(=O)c6cnn7ccc(N8CCOCC8)nc67)c(C(F)F)n5)CC4)CC3)c2c(=O)n1C1CCC(=O)NC1=O (stereo partly shown) [I-215]	> 1000	> 1000		> 1000	
CN[C@@H](C)C(=O)N[C@H](C(=O)N1Cc2cc(OCCOCCOCCOCCNC[C@H]3CC[C@H](n4cc(NC(=O)c5coc(-c6ccnc(NCC7CC7)c6)n5)c(C(F)F)n4)CC3)ccc2C[C@H]1C(=O)N[C@@H]1CCCc2ccccc21)C(C)(C)C [I-390]		> 1000			> 1000
O=C1CCC(N2C(=O)c3cccc(NCCCOC4CCN(C[C@H]5CC[C@H](n6ncc(NC(=O)c7cnn8ccc(N9C[C@H]%10CC9CO%10)nc78)c6C(=O)O)CC5)CC4)c3C2=O)C(=O)N1 (stereo partly shown) [I-348]	> 1000	> 1000		> 1000	
CN(CCCOC1CCN(C[C@H]2CC[C@H](n3cc(NC(=O)c4cnn5ccc(N6CCOCC6)nc45)c(C(F)F)n3)CC2)CC1)c1cccc2c1C(=O)N(C1CCC(=O)NC1=O)C2=O (stereo partly shown) [I-212]	> 1000	10 to 100			
Cn1c(=O)n(C2CCC(=O)NC2=O)c2ccc(CN3CCC(CC(=O)N4CCC(n5cc(NC(=O)c6coc(-c7ccnc(NCC8CC8)c7)n6)c(C(F)F)n5)CC4)CC3)cc21 (stereo not shown) [I-148]	100 to 500	100 to 1000			
Cn1c(=O)n([C@@H]2CCC(=O)NC2=O)c2cccc(CCCOC3CCN(C[C@H]4CC[C@H](n5cc(NC(=O)c6cnn7ccc(N8CCOCC8)nc67)c(C(F)F)n5)CC4)CC3)c21 [I-311, N-(3-(difluoromethyl)-1-((1r,4r)-4-((4-(3-(1-((R)-2,6-dioxopiperidin-3-yl)-3-methyl-2-oxo-2,3-dihydro-1H-benzo [d]imidazol-4-yl)propoxy)piperidin-1-yl)methyl)cyclohexyl)-1H-pyrazol-4-yl)-5-morpholinopyrazolo[1,5-a] pyrimidine-3-carboxamide]	> 1000	10 to 100			
CC[C@@H]1CC(=O)N[C@@H]1COc1ncc(C#C[C@H]2CC[C@H](CN(C)CCCOCCCc3cccc4c3n(C)c(=O)n4C3CCC(=O)NC3=O)CC2)c2cc(C(N)=O)c(OC)cc12 (stereo partly shown) [I-219]	> 1000	10 to 100		10 to 100	
O=C1CCC(N2C(=O)c3cccc(NCCCOCCCOC[C@H]4CC[C@H](n5cc(NC(=O)c6cnn7ccc(N8C[C@H]9C[C@@H]8CO9)nc67)c(C(F)F)n5)CC4)c3C2=O)C(=O)N1 (stereo partly shown) [I-363]	> 1000	> 1000			
Cn1c(=O)n(C2CCC(=O)NC2=O)c2ccc(CCCOCCOCC(F)CNC(=O)c3cnc(Nc4ccc5cnccc5n4)cc3NC3CC3)cc21 (stereo not shown) [I-138]	> 1000	> 1000		> 1000	
O=C1CCC(N2C(=O)c3cccc(NCCc4ccc(C5CCN(C[C@H]6CC[C@H](n7cc(NC(=O)c8cnn9ccc(N%10C[C@H]%11C[C@@H]%10CO%11)nc89)c(C(F)F)n7)CC6)CC5)cc4)c3C2=O)C(=O)N1 (stereo partly shown) [I-362]	500 to 1000	100 to 1000		10 to 100	
CN(CCCOCCCc1cccc2c1n(C)c(=O)n2[C@@H]1CCC(=O)NC1=O)C[C@H]1CC[C@H](n2cc(NC(=O)c3coc(-c4ccnc(NCC5CC5)c4)n3)c(C(F)F)n2)CC1 (single isomer, unassigned) [I-307]	> 1000	10 to 100			
O=C1CCC(N2C[C@@H](c3ccc(C#CCCOC4CCN(C[C@H]5CC[C@H](n6cc(NC(=O)c7cnn8ccc(N9CCC(O)CC9)nc78)c(C(F)F)n6)CC5)CC4)cc3)OC2=O)C(=O)N1 (stereo partly shown) [I-152]	> 1000	10 to 100			
Cn1c(=O)n(C2CCC(=O)NC2=O)c2cccc(CCCOC3CCN([C@H]4CC[C@@H](Nc5ncnc6ccc(C#N)cc56)CC4)CC3)c21 (stereo partly shown) [I-305, 4-[[4-[4-[3-[1-(2,6-dioxo-3-piperidyl)-3-methyl-2-oxo-benzimidazol-4-yl]propoxy]-1-piperidyl]cyclohexyl]amino]quinazoline-6-carbonitrile]	> 1000	> 1000		> 1000	
